The text below walks through data of PMC9697976, “Giardia lamblia G6PD::6PGL Fused Protein Inhibitors Decrease Trophozoite Viability: A New Alternative against Giardiasis” (International Journal of Molecular Sciences, 2022).

Structures are written as SMILES. Where two headings read alike, the source gives them in different places.

The target of data set [1] is T1, G6PD::6PGL fused enzyme (Giardia intestinalis, UniProt A8BWM5). Description: Screening of in-house library on G6PD::6PGL activity at 400 µM. Type of data set: biochemical, Giardia lamblia. Here is the method:
The effects of 120 organic molecules from the in-house chemical library of compounds, which were synthesized in the Medicinal Chemistry Laboratory at the Pharmacy Faculty of the Autonomous University Morelos State, include mainly aromatic and non-aromatic heterocyclic compounds with heteroatoms such as nitrogen, oxygen, and sulfur, which were evaluated as possible specific inhibitors of G6PD::6PGL. The assay was carried out following what was reported by Martinez-Rosas et al.; each compound was dissolved in dimethyl sulfoxide (DMSO), and the recombinant enzyme G6PD::6PGL (0.2 mg/mL) was incubated with the compounds at a concentration of 400 µM, for 2 h, at 37 °C. The residual enzymatic activity of the G6PD domain was measured following the spectrophotometric NADP^+ reduction at 340 nm with the standard reaction mixture. Activity data were plotted as percent residual activity, where 100% activity was taken from enzyme samples incubated without a compound.

Data set [2] has as its target T1, G6PD::6PGL fused enzyme. Put plainly: Enzymatic inhibition assay (concentration-dependent inactivation) of G6PD::6PGL. Type of data set: biochemical, Giardia lamblia. To be noted: for inhibition at 200 µM: read-out: Loss of initial G6PD::6PGL activity. Here is the method:
G6PD::6PGL protein was adjusted at 0.2 mg/mL and incubated in the presence of different concentrations of compounds (0–800 μM). After incubation, aliquots were withdrawn from the samples, and the residual activity was determined. The G6PD::6PGL without compounds was used to determine 100% activity. The assays were carried out in triplicate, and the data represent the mean ± standard error.
The IC50 values of the four selected compounds were determined. […] The assay was performed using a protein concentration of 0.2 mg/mL in buffer T (100 mM Tris–HCl, 30 mM MgCl2, pH 8) with different concentrations of the compounds (0 to 800 µM). The protein was incubated at 37 °C for 2 h after the residual activity of the G6PD domain was measured. The data were plotted as percent activity, where 100% was taken as the enzyme’s activity without compounds. All values were adjusted to the Boltzmann sigmoid equation in the Origin 8.0® program (Northampton, MA, USA) to obtain the IC50 value expressed in µM units.

For data set [3], the system named is G. lamblia trophozoites. Put plainly: Antigiardial activity, trophozoite viability (trypan blue). Type of data set: cell-based. To be noted: Giardia duodenalis, 48 h, read-out: IC50 G. lamblia (trophozoite viability). Here is the method:
The trophozoites were incubated in the presence of compounds for 48 h at 37 °C with increasing concentrations of each of the compounds, and later the viability of the trophozoites was determined. The values represent mean ± standard deviation from three independent experiments, and standard errors of the mean were lower than 5%.
The Giardia lamblia WB strain (ATCC number 30957) was grown and cultivated in a modified TYI-S-33 medium supplemented with 10% fetal bovine serum at 37 °C. G. lamblia was harvested from a confluent culture by chilling the tubes on ice for 5–10 min to detach cells, followed by centrifugation at 800× g for 5 min. For the antigiardial activity assay, 5 × 10^4 trophozoites of G. lamblia were incubated with different concentrations of the compounds (31, 62, 125, 250, and 500 µM) in a final volume of 1.5 mL and then incubated for 48 h at 37 °C. After incubation, 75 µL of the treated trophozoites were subcultured individually for another 48 h in a fresh medium without compounds. At the end of this period, the viable trophozoites were counted using trypan blue. Each compound was assayed in three independent experiments. Appropriate controls were tested in each assay, including a sample without compounds and another with only 2% DMSO.

Data set [4] deals with T1, G6PD::6PGL fused enzyme. Put plainly: Second-order inactivation constant (k2) of G6PD::6PGL. Type of data set: biochemical, Giardia lamblia. To be noted: for kinact/KI: read-out: Second-order inactivation constant (k2). Here is the method:
At the indicated times, aliquots were withdrawn from the samples and assayed for residual activity. Initial velocity was fitted to determine each compound’s pseudo-first-order inactivation constants (k1). […] All experiments were performed in triplicate.
Inactivation assays were performed to determine the rate of each to form the enzyme–inhibitor complex. First, the pseudo-first-order constants (k1) were obtained by incubating 0.2 mg/mL of pure G6PD::6PGL enzyme and different concentrations of compound (0 to 500 µM) at 37 °C in time intervals (0–120 min). After the incubation period, enzyme activity was measured spectrophotometrically following the reduction of NADP^+ at 340 nm for each experimental condition. The results were expressed in terms of the activity percentage against each compound’s concentration. The residual activity data were fitted to a mono-exponential decay model, using the equation AR=A0 e^−kt , where AR is the residual activity at different times, A0 is the activity at the initial time, and k is the pseudo-first-order inactivation constant (min^−1). Subsequently, the constants obtained were plotted against the corresponding inhibitor concentration. A linear regression model was applied to obtain the second-order inactivation constant k2 (M^−1 s^−1).

Data set [5] has as its system Caco-2 cells. Description: in vitro. To be noted: 250 µM compound. Here is the method: (§1) An XTT cell proliferation assay determined the viability.
(§2) The cytotoxicity assay was performed using human cell lines Caco-2 (ATCC HTB-37) and HT29 (ATCC HHTB-38) with a Cell Proliferation Kit II (XTT; St Louis, MO, USA). A cell suspension of 2 × 10^5 cells/mL was prepared in Dulbecco’s modified Eagle’s (DMEM) medium, supplemented with 10% inactivated fetal bovine serum and 1% penicillin/streptomycin (5000 U/mL), and 100 µL portions of the suspension were added to the wells of 96-well plates. The plates were incubated for 24 h at 37 °C in an atmosphere of 5% CO2. The medium in each well was replaced with 100 µL medium with compounds at 500, 250, 150, 75, 32, and 16 µM. After 48 h of incubation at 37 °C in an atmosphere of 5% CO2, the viability of cells was determined. The medium in each well was gently replaced with 100 µL of fresh medium, 50 µL of XTT labeling mixture was added per well, the mixture was incubated for four h at 37 °C and 5% CO2, and the absorbance at 495 nm was measured. Each compound was assayed in triplicate via three independent experiments. The CCI50 values were determined using the nonlinear regression function of GraphPad Prism version 6.04 for Windows.

Data set [6] deals with T2, HsG6PD (Homo sapiens, UniProt P11413). Put plainly: Effect of compounds on HsG6PD activity at 400 µM. Type of data set: biochemical. The text has this: Based on the above, we decided to evaluate the effect in vitro of the compounds in the inactivation of the G6PD::6PGL enzyme.
Data set [7] relates to HT29 cells. Description: In vitro cytotoxicity, XTT assay, HT29. To be noted: for Decrease of HT29 cell viability: 250 µM compound; for Selectivity index (SI), CC50 HT29 / IC50 G. lamblia: ratio of CC50/IC50 between mammalian cells and trophozoites. Here is the method: as §1, §2
In general terms: Tetrazolium assays rely on reduction of a dye to a coloured formazan, in cell work by metabolically active cells.

Data set [8] in a line: in vitro. To be noted: human, Caco-2. Here is the method:
as §1, §2

The target of data set [9] is T2, HsG6PD. The arrangement: method as in earlier work. To be noted: ref 24 (Ramirez-Nava et al.); cited from earlier work.
A short description of data set [10]: In vitro cytotoxicity, XTT assay, HT29. To be noted: human. Here is the method:
as §1, §2

Data set [11] concerns Caco-2 cells. To be noted: cited from earlier work.
For data set [12], the system named is HT29 cells. To be noted: nitazoxanide; cited from earlier work.
Setting [13] is: read-out: G6PD::6PGL Inhibition (%) at (400 μM).
Where [14] appears, read: read-out: G6PD::6PGL Inhibition (%) at (400 μM), 400 μM compound, 0.2 mg/mL enzyme, 2 h, 37 °C.
[15] abbreviates: read-out: G6PD::6PGL IC50, 0.2 mg/mL enzyme, 0–800 μM compound, 2 h, 37 °C.
[16] abbreviates: 400 μM compound, read-out: HsG6PD Inhibition (%) at (400 μM).

T2 sequence (P11413 whole entry): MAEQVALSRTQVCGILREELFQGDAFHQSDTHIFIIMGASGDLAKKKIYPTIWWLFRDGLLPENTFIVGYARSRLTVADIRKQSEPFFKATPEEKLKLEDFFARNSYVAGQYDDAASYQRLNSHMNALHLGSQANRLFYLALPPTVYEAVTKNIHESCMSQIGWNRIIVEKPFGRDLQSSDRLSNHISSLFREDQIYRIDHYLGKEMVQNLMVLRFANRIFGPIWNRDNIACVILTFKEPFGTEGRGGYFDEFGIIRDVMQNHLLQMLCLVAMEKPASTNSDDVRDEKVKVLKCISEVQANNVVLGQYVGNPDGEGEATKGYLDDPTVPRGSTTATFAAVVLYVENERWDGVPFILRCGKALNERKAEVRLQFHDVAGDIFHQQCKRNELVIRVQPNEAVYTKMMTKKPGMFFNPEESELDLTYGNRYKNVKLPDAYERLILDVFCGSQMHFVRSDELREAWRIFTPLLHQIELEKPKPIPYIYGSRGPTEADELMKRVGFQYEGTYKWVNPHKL
T1 sequence (A8BWM5 entry or part of it): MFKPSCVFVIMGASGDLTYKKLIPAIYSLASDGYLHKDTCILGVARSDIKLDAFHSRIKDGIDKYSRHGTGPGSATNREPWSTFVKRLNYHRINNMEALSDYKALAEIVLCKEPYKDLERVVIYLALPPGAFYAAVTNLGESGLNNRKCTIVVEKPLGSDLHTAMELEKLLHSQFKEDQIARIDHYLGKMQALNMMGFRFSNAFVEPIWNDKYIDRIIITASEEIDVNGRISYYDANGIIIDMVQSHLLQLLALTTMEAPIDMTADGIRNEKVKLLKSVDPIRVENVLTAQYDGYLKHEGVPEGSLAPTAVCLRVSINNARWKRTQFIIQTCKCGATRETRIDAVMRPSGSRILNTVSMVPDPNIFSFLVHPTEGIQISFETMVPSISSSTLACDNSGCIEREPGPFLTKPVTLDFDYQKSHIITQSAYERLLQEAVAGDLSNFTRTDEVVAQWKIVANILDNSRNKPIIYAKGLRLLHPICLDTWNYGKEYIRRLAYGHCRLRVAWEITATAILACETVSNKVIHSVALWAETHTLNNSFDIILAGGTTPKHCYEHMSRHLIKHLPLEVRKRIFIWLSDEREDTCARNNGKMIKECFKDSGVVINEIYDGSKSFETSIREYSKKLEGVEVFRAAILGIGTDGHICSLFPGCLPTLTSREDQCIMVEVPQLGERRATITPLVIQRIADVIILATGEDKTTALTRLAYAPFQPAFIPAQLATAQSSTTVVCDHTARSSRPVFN

For the compound `O=C1CC(=O)NC(=O)N1` [Barbituric acid, reference compound], in [1] (setting [13]), the inhibition at 400 µM is 0%. Also, in data set [2], the IC50 was above 500 µM.

Take `O=C1NC(=O)C(=Cc2ccc(OCc3ccccc3)cc2)C(=O)N1` [CMC-1]: the values for the IC50 in data set [3] and in [2] were 24.1 µM and 70 µM, respectively. Further, the “Second-order inactivation constant (k2)” value in [4] (0.2 mg/mL enzyme, 37 °C, 0–120 min) amounted to 0.97 M⁻¹ s⁻¹. Besides, the inhibition at 400 µM in [1] (setting [13]) was 98%; in data set [6] (read-out: HsG6PD Inhibition (%) at (400 μM), 400 μM compound) it was around 34%. Further, in data set [2] (2 h), the inhibition at 200 µM was determined as 100%. Besides, in [5], the “Decrease of Caco-2 cell viability” value was “approximately 20%”. For the same compound, in data set [7], the “Decrease of HT29 cell viability” value came out at 25%.

`CCCCOc1ccc(NC(=O)Nc2nc([N+](=O)[O-])cs2)cc1` [CNZ-7]: the IC50 in data set [3] (37 °C, WB strain) was 8.7 µM; in data set [2] (setting [15]), 150 µM; in [9], 274 µM. Moreover, the kinact/KI in data set [4] came to 0.97 M⁻¹ s⁻¹. In addition, the inhibition at 400 µM in data set [1] (setting [14]) was 85%; in data set [6] (setting [16]), 68%. For the same compound, the inhibition at 200 µM in data set [2] (2 h) was determined as 60%. The CC50 at 48 h in data set [8] stood at 640 µM; in data set [10] (HT29 cells), 529 µM. In addition, in data set [8], the selectivity ratio at 48 h was determined as 74. For the same compound, the “Decrease of Caco-2 cell viability” value in data set [5] is reported as “approximately 20%”. Besides, the “Decrease of HT29 cell viability” value in data set [7] worked out at 25%. Besides, in [7], the “Selectivity index (SI), CC50 HT29 / IC50 G. lamblia” value is 60.

On to `O=C(Nc1ccc([N+](=O)[O-])cc1)Nc1nc([N+](=O)[O-])cs1` [CNZ-8], for which the IC50 is 15.2 µM in [3] (37 °C, WB strain) and 80 µM in [2] (setting [15]). For the same compound, in data set [4], the kinact/KI was found to be 0.6 M⁻¹ s⁻¹. The inhibition at 400 µM came out at 75% in [1] (setting [14]) and 43% in data set [6] (setting [16]). The inhibition at 200 µM in data set [2] (2 h) was 80%. For the same compound, the CC50 at 48 h was found to be 633 µM in data set [8] and 622 µM in data set [10]. Besides, the selectivity ratio at 48 h in data set [8] amounted to 41. Moreover, the “Decrease of Caco-2 cell viability” value in data set [5] is on record as “approximately 20%”. Further, the “Decrease of HT29 cell viability” value in data set [7] turned out to be 25%. Also, the “Selectivity index (SI), CC50 HT29 / IC50 G. lamblia” value in [7] is 41.

Consider `CCCCCC(=O)Nc1nc([N+](=O)[O-])cs1` [FLP-2], for which the half-maximal inhibitory concentration (IC50) was found to be 15.3 µM in data set [3] (37 °C, WB strain) and 256 µM in [2] (setting [15]). For the same compound, the kinact/KI in data set [4] stood at 0.82 M⁻¹ s⁻¹. Besides, the inhibition at 400 µM in data set [1] (setting [14]) is 89%; in [6] (setting [16]), around 20%. In addition, the inhibition at 200 µM in [2] (2 h) stood at 40%. The CC50 at 48 h was 3180 µM in data set [8] and 1910 µM in data set [10] (HT29 cells). Besides, in [8], the selectivity ratio at 48 h was found to be 208. In data set [7], the “Selectivity index (SI), CC50 HT29 / IC50 G. lamblia” value was 125.

Consider `Cc1ncc([N+](=O)[O-])n1CCO` [Metronidazole, reference compound], for which, in [3] (37 °C, WB strain), the IC50 was 4.8 µM. The “CC50 Caco-2 (literature IC50)” value in data set [11] (metronidazole) is recorded as 19 µM.

For the compound `CC(=O)Oc1ccccc1C(=O)Nc1ncc([N+](=O)[O-])s1` [Nitazoxanide, reference compound], the results for the IC50 in [3] and in [2] were 4.2 µM and 78 µM, respectively. The “CC50 HT29 (literature IC50)” value in data set [12] is above 50 µM. Moreover, in [1] (setting [14]), the inhibition at 400 µM is 100%. The selectivity ratio at 48 h in data set [8] is 7. Besides, the “CC50 Caco-2 (literature IC50)” value in data set [11] (nitazoxanide) is recorded as 26.8 µM. The “Selectivity index (SI), CC50 HT29 / IC50 G. lamblia” value in data set [7] is listed as 12.

One may read the IC50 as the concentration at which inhibition is half-maximal.
